Entries after “also recorded” stand apart in the source; their conditions may differ.
Experiments:
TLR7 = biological target: T1, TLR7 (Mus musculus, UniProt P58681); test: TNF-α secretion ELISA after TLR7 agonist imiquimod (IMQ) in RAW 264.7 cells; format: cell-based; conditions: SK21 to SK82 at 0.5 μM or 2 μM, Imiquimod 1 μg/ml
T1 construct: endogenous in cells; host or cells: RAW 264.7
T1 sequence (P58681 27-1050): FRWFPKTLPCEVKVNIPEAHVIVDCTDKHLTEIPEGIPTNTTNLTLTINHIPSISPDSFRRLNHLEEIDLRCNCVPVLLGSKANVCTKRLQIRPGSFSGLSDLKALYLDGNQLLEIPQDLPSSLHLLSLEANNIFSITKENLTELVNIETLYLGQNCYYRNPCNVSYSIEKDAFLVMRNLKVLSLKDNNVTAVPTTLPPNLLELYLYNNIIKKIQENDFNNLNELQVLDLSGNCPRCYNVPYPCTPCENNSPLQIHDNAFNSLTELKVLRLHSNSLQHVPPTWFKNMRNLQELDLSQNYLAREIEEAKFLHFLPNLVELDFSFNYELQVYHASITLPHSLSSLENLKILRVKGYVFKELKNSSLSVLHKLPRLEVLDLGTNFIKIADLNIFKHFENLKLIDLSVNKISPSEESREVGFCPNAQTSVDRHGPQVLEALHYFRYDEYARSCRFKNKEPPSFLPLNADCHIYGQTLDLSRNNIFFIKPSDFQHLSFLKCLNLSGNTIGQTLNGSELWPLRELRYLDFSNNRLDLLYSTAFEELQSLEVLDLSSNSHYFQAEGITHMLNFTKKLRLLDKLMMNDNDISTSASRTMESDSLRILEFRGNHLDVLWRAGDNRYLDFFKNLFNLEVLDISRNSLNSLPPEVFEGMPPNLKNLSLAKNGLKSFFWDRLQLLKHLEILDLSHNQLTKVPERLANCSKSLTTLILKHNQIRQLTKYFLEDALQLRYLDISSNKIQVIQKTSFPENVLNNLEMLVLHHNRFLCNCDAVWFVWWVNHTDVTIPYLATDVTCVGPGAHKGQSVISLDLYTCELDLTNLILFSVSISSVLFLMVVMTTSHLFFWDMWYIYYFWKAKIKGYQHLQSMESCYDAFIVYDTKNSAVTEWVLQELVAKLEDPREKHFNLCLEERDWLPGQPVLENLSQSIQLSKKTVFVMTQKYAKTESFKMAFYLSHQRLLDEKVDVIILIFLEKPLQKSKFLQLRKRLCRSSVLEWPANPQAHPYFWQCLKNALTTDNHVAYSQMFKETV
Protocol: (§1) In order to determine the inhibitory activities of the test-ligand, RAW 264.7 cells were pretreated with each candidate compound for 1 hour, then treated with Pam3CSK4 (synthetic triacyl lipopeptide; TLR1/2, Invitrogen), FSL-1 (synthetic diacyl lipoprotein, TLR2/6, 100 ng/ml), lipopolysaccharide (LPS, TLR4, Sigma Aldrich), imiquimod (IMQ, TLR7, Invitrogen), and ODN2395 (type C CpG repeat motif DNA oligo(5′-[…]-3), TLR9, Bioneer) ligand for 4 hours, and treated with poly I:C (I:C repeat motif double-stranded RNA, TLR3, Invitrogen) and TL8-506 (TLR8, Invitrogen) showing delayed reactivity for 24 hours. After activation of TLR, the supernatant was diluted in an appropriate ratio so as to measure within the standard dose range, transferred to a pre-coated 96-well assay plate, and then treated with mouse TNF-alpha secretion level in accordance with the manufacturer's instructions using a mouse-TNF-alpha ELISA-kit (Invitrogen).
(§2) In order to plot the concentration-dependent LC50 curves, treatment with the SK series ligands at different concentrations up to 200 μM (the highest concentration that could be treated within the level of 0.5% DMSO) was performed. Then, cell viability and toxicity response upon treatment with ligands were analyzed by MTT as described in Examples 1-3. Cell viability in each plot was normalized from negative control (100%; no treatment) to positive control (highest concentration of test-ligand), and LC50 was determined by non-linear regression (Graph Pad Prism 7.0). In order to plot the concentration-dependent IC50 curves, pre-treatment with the SK series ligands was performed at different concentrations up to 50 μM (twice the initial concentration). Cell responses mediated by TLR7 and TLR9 (levels of TNF-α secretion) were analyzed by ELISA as described in Examples 1-4. The cytokine level in each plot was normalized from negative control (non-treated) to positive control (treatment with ligand), and IC50 was determined by non-linear regression (Graph Pad Prism 7.0).
(§3) In order to select potential inhibitory molecules against TLR3/TLR7/TLR8/TLR9 activation, first, MTT (3-(4,5-dimethylthiazol-2-yl)-2,5-diphenyltetrazolium bromide) cell viability assay (FIG. 7) was performed upon treatment with a set of ligands from SK21 to SK82 at a concentration of 20 μM and the inhibitory activity thereof was evaluated by an ELISA assay to monitor the level of TNF-α secretion in RAW 264.7 cells. The experimental ligands from SK21 to SK82 were administered at 0.5 μM or 2 μM to the RAW 264.7 cells and stimulated with Imiquimod (TLR7, 1 μg/ml) and OND2395 (TLR9, 0.5 μM).

TLR9 = biological target: T2, TLR9 (Mus musculus, UniProt Q9EQU3); test: TNF-α secretion ELISA after TLR9 agonist ODN2395 in RAW 264.7 cells; format: cell-based; conditions: SK21 to SK82 at 0.5 μM or 2 μM, ODN2395 0.5 μM
T2 construct: endogenous in cells; host or cells: RAW 264.7
T2 sequence (Q9EQU3 26-1032): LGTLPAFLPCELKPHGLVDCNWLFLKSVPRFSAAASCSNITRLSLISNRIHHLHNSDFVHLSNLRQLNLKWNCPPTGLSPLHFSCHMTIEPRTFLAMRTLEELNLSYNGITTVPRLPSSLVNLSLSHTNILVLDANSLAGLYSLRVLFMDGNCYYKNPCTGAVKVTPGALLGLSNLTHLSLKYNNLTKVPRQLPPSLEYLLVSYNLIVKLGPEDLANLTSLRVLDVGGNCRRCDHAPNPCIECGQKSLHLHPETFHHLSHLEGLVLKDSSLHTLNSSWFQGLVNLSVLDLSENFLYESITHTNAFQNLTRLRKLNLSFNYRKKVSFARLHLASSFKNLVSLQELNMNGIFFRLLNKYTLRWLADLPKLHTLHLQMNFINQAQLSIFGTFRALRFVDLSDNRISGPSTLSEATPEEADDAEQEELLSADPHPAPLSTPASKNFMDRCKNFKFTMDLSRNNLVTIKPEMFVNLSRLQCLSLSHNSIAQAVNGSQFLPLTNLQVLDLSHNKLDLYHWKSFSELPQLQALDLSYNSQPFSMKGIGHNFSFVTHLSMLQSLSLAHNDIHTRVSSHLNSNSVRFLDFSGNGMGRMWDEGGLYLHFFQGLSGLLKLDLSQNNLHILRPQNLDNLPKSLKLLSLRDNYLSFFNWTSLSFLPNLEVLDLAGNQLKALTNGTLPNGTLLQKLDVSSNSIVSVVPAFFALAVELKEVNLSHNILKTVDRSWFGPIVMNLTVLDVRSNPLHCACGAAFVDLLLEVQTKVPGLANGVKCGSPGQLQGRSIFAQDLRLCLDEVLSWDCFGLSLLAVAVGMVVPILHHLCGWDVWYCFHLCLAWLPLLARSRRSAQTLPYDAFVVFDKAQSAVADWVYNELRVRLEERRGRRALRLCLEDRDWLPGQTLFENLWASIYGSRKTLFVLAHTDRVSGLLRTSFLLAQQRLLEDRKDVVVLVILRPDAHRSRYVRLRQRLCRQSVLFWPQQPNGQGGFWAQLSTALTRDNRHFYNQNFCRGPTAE
Protocol: as §1, §2, §3

For `Cc1c(C)n(CCCN(C)Cc2ccccc2)c2nc3c(c(N)c12)CCCCC3` [SK23, 1-(3-(benzyl(methyl)amino)propyl)-2,3-dimethyl-1,5,6,7,8,9-hexahydrocyclohepta[b]pyrrolo[3,2-e]pyridin-4-amine], the “inhibitory activity against TLR7 (level of TNF-α secretion)” value (“inhibitory activity against TLR7” for short) (TLR7) was “significant inhibitory activity; also recorded: significantly reduced” and the “inhibitory activity against TLR9 (level of TNF-α secretion)” value (shortened to “inhibitory activity against TLR9”) (TLR9) was “significant inhibitory activity; also recorded: significantly reduced”.
In the case of `CNCCCn1c(C)c(C)c2c(N)c3c(nc21)CCCCC3` [SK24, 2,3-dimethyl-1-(3-(methylamino)propyl)-1,5,6,7,8,9-hexahydrocyclohepta[b]pyrrolo[3,2-e]pyridin-4-amine], the “inhibitory activity against TLR7” value (TLR7) was “significant inhibitory activity; also recorded: significantly reduced” and the “inhibitory activity against TLR9” value (TLR9) was “significant inhibitory activity; also recorded: significantly reduced”.
With `Cc1cc2c(N)c3c(nc2n1CCCN(C)C)CCCCC3` [SK29, 1-(3-(dimethylamino)propyl)-2-methyl-1,5,6,7,8,9-hexahydrocyclohepta[b]pyrrolo[3,2-e]pyridin-4-amine] the “inhibitory activity against TLR7” value (TLR7) was “significant inhibitory activity; also recorded: significantly reduced” and the “inhibitory activity against TLR9” value (TLR9) was “significant inhibitory activity; also recorded: significantly reduced”.
For `Cc1c(C)n(CCCN(C)C)c2nc3c(c(N)c12)CCCC3` [SK36, 1-(3-(dimethylamino)propyl)-2,3-dimethyl-5,6,7,8-tetrahydro-1H-pyrrolo[2,3-b]quinolin-4-amine], the “inhibitory activity against TLR7” value (TLR7) was “significant inhibitory activity; also recorded: significantly reduced” and the “inhibitory activity against TLR9” value (TLR9) was “significant inhibitory activity; also recorded: significantly reduced”.
`Cc1cc2c(N)c3c(nc2n1CCCN(C)C)CCCC3` [SK39, 1-(3-(dimethylamino)propyl)-2-methyl-5,6,7,8-tetrahydro-1H-pyrrolo[2,3-b]quinolin-4-amine] was tested, and the “inhibitory activity against TLR7” value (TLR7) was “significant inhibitory activity; also recorded: significantly reduced” and the “inhibitory activity against TLR9” value (TLR9) was “significant inhibitory activity; also recorded: significantly reduced”.
With `CCc1nc2c(cc(C)n2CCCN(C)C)c(N)c1C` [SK40, 1-(3-(dimethylamino)propyl)-6-ethyl-2,5-dimethyl-1H-pyrrolo[2,3-b]pyridin-4-amine] the “inhibitory activity against TLR7” value (TLR7) was “significant inhibitory activity; also recorded: significantly reduced” and the “inhibitory activity against TLR9” value (TLR9) was “significant inhibitory activity; also recorded: significantly reduced”.
`CN(C)CCCn1c2ccccc2c2c(N)c3c(nc21)CCCC3` [SK52, 6-(3-(dimethylamino)propyl)-2,3,4,6-tetrahydro-1H-indolo[2,3-b]quinolin-11-amine] was tested, and the “inhibitory activity against TLR7” value (TLR7) was “significant inhibitory activity; also recorded: significantly reduced” and the “inhibitory activity against TLR9” value (TLR9) was “significant inhibitory activity; also recorded: significantly reduced”.
For `CNCCCn1c2ccc(OC)cc2c2c(N)c3c(nc21)CCCC3` [SK54, 9-methoxy-6-(3-(methylamino)propyl)-2,3,4,6-tetrahydro-1H-indolo[2,3-b]quinolin-11-amine], the “inhibitory activity against TLR7” value (TLR7) was “significant inhibitory activity; also recorded: significantly reduced” and the “inhibitory activity against TLR9” value (TLR9) was “significant inhibitory activity; also recorded: significantly reduced”.
In the case of `CNCCCn1c2ccccc2c2c(N)c3c(nc21)CCCC3` [SK55, 6-(3-(methylamino)propyl)-2,3,4,6-tetrahydro-1H-indolo[2,3-b]quinolin-11-amine], the “inhibitory activity against TLR7” value (TLR7) was “significant inhibitory activity; also recorded: significantly reduced” and the “inhibitory activity against TLR9” value (TLR9) was “significant inhibitory activity; also recorded: significantly reduced”.
`CN(C)CCCn1c2ccc(F)cc2c2c(N)c3c(nc21)CCCC3` [SK59, 6-(3-(dimethylamino)propyl)-9-fluoro-2,3,4,6-tetrahydro-1H-indolo[2,3-b]quinolin-11-amine] was tested, and the “inhibitory activity against TLR7” value (TLR7) was “significant inhibitory activity; also recorded: significantly reduced” and the “inhibitory activity against TLR9” value (TLR9) was “significant inhibitory activity; also recorded: significantly reduced”.
`CN(C)CCCn1c2ccc(Cl)cc2c2c(N)c3c(nc21)CCCC3` [SK60, 9-chloro-6-(3-(dimethylamino)propyl)-2,3,4,6-tetrahydro-1H-indolo[2,3-b]quinolin-11-amine] was tested, and the “inhibitory activity against TLR7” value (TLR7) was “significant inhibitory activity; also recorded: significantly reduced” and the “inhibitory activity against TLR9” value (TLR9) was “significant inhibitory activity; also recorded: significantly reduced”.
With `CN(C)CCCn1c2ccc(OC(F)(F)F)cc2c2c(N)c3c(nc21)CCCC3` [SK61, 6-(3-(dimethylamino)propyl)-9-(trifluoromethoxy)-2,3,4,6-tetrahydro-1H-indolo[2,3-b]quinolin-11-amine] the “inhibitory activity against TLR7” value (TLR7) was “significant inhibitory activity; also recorded: significantly reduced” and the “inhibitory activity against TLR9” value (TLR9) was “significant inhibitory activity; also recorded: significantly reduced”.
